The source of these data is patent publication US10577349B2 (Sanford Burnham Prebys Medical Discovery Institute, priority 2015, dated 2020).

The target of data set [1] is HCV cap-dependent translation. Description: In vitro translation assay, FF-HCV-Ren construct, cap-dependent (FF luciferase). The data set is classed as biochemical, rabbit reticulocyte lysates. Put shortly:
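Compounds were tested on bicistronic firefly/Renilla RNA in rabbit reticulocyte lysate, with 2 h translation at 30° C after 1 h compound pre-incubation. To rule out luciferase interference, compounds were also added after translation was complete.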

The nature of data set [2]: Aqueous Solubility in 1xPBS, pH 7.4. The data set is classed as physicochemical. To be noted: pH 7.4, aqueous buffer.
Data set [3] in a line: PAMPA Permeability. It counts as in vitro ADME. (The PAMPA barrier holds no transporters, so it reflects passive diffusion.)
Data set [4] is described as follows: Hepatic Microsome Stability Human. The data set is classed as in vitro ADME.
Data set [5] is described as follows: Compound 38 PK Study. The data set is classed as in vivo, C57Bl/6J mice. To be noted: male, C57Bl/6J, mouse, plasma. As for the experimental part:
Method: Fasted male C57Bl/6J mice were dosed with a 1 mg/mL solution of Compound 38 in 10% DMSO, 10% Tween-80 and 80% water by intravenous injection (2 mg/kg, as a 0.4 mg/mL solution), oral gavage (10 mg/kg as a 1 mg/mL solution) or intraperitoneal injection (10 mg/kg as a 1 mg/mL solution). Plasma was collected at various time points and analyzed by LC/MS/MS to determine compound levels.

Data set [6] deals with UACC903 and A375 cell lines. Kind of data set: Western blot validation of RPPA data. It counts as cell-based, human. As for the experimental part:
Cells were rinsed with PBS and lysed in culture plates with lysis buffer (50 mM Tris-HCl, pH 7.4, 150 mM NaCl, 1% NP-40, 1 mM EDTA, 10 μg/ml aprotinin, 1 μg/ml pepstatin A, 10 μg/ml leupeptin, 1 mM phenylmethylsulfonyl fluoride, and 1 mM sodium orthovanadate). Protein concentration was determined using Coomassie Plus Protein Assay Reagent (Thermo Scientific). Equal amounts of cell lysate proteins (50 μg) were resolved by SDS-PAGE and transferred to polyvinylidene difluoride membranes (PerkinElmer Life Sciences). Membranes were blocked with 5% BSA/TBST for 1 h and incubated with primary antibodies for 1 h at room temperate or overnight at 4° C., with shaking. Following three TBST washes, membranes were incubated for 1 h at room temperature with goat anti-rabbit Alexa Fluor 680 F(ab′)2 or goat anti-mouse IRDye 800 F(ab′)2 diluted 1:10,000. Bound antibodies were detected using the Odyssey Infrared Imaging System (LiCor Biosciences), or by exposing them to X-ray blue film.
A reverse phase protein array (RPPA) analysis of BRAF- and NRAS-mutant melanomas was performed to identify protein networks affected by Compound 38 (Table 4).
In general terms: Immunoblotting shows a protein as a band on a membrane.

Data set [7] relates to A375 tumors. Kind of data set: A375 xenograft in nude mice. It counts as in vivo. As for the experimental part:
All animal studies were conducted in the SBMRI Animal Facility in accordance with the Institutional Animal Care and Use Committee guidelines. Six-week-old female nu/nu mice were purchased Harlan Laboratories (Indianapolis, Ind.) and allowed to acclimatize for 1 week. A375 cells (1×10^6, suspended in 200 μL sterile PBS) were injected into subcutaneous flank tissue. When the xenograft size reached ˜250 mm^3, mice were sorted into different groups. For PLX4720 and Compound 38 combination experiments, mice were either fed PLX4720-containing chow alone (AIN76A Roden Diet with 417 mg PLX4720/kg from Open Source Diets) for the control group or PLX4 720-containing chow plus an IP injection of 1 mg/kg Compound 38 twice a week. For MEKi plus Compound 38 experiments, PD0325901 at 20 mg/kg (formulated in 0.5% hydroxypropyl methylcellulose plus 0.2% Tween-80) was administered by oral gavage twice a week (Monday and Thursday) for the control group, or PD035901 plus IP injection of 1 mg/kg Compound 38 was administered twice a week (Tuesday and Friday). Mice were maintained in a pathogen-free environment with free access to food. Body weight and tumor volume were measured twice a week. Tumor size was measured with linear calipers and calculated using the formula: ([length in millimeters×(width in millimeters)2]/2). Mice were sacrificed after 4 weeks and tumors were fixed in Z-Fix (Anatech, Battle Creek, Mich.) and embedded in paraffin for immunohistochemistry.
A375 human melanomacells were injected subcutaneously (1×10^6) into the flank of nude mice and allowed to form established tumors. Once tumors reached approximately 250 mm3, mice were randomly grouped and subjected to the indicated treatments [chow containing PLX4720 (417 mg/kg) and/or Compound 38 (1 mg/kg, 2 times per week intraperitoneally)]. Tumor size was measured at the indicated time points. The experiment was repeated twice. […] When tumors were allowed to reach 500 mm^3 before initiating treatment, 5 of 7 […] mice subjected to BRAFi treatment alone relapsed as drug-resistant tumors (4/5 within 4-6 weeks), whereas only 3 of 6 (50%) subjected to combination treatment developed resistance, albeit more slowly (2/3 after 8 weeks; FIG. 22). […] Proteins prepared at the indicated times from A375 tumors that were subjected in vivo to treatment with Compound 38 were incubated with m^7GTP-beads to capture the eIF4F complex. Shown is time-dependent inhibition of eIF4G1 binding to eIF4E in vivo, concomitant with increased binding of inhibitory 4E-BP1 to eIF4E.

In brackets after ≈: the same amount, converted by molar mass. Read-outs that look alike come from different tables or passages of the source.

By IC50 is commonly meant the point on the concentration scale where inhibition reaches its midpoint. Higher therefore signals weaker potency. The solubility is the dissolved amount per volume that the medium holds. High values mean much dissolved substance, low ones little dissolved substance. As usually defined, the half-life is how long it takes for the measured level to halve. Read a high half-life as slow loss. Broadly, the clearance is the rate of elimination divided by the concentration. High values mean a high capacity for elimination, low ones a low capacity for elimination. For orientation: bioavailability means the share of a dose that reaches the circulation, judged against a reference dose that is usually intravenous. Lower therefore signals poor availability. Compound `O=C(/C=C/c1cncc(F)c1)c1c(-c2ccccc2)c2cc(Cl)ccc2[nH]c1=O` [Compound 38, 6-Chloro-3-[3-(5-fluoro-pyridin-3-yl)-acryloyl]-4-phenyl-1H-quinolin-2-one] showed an IC50 in data set [1] of 2 to 10 µM. The concentration in solution in data set [2] (solubility) was 5.6 µg/mL (≈ 13.8 µM). The Papp in data set [3] (Donor pH 5.0, Acceptor pH 7.4, read-out: PAMPA Permeability, Pe, Donor pH 5.0) is 1110 ×10⁻⁶ cm/s; in data set [3] (Donor pH 6.2, Acceptor pH 7.4, read-out: PAMPA Permeability, Pe, Donor pH 6.2) it was 1150 ×10⁻⁶ cm/s; in data set [3] (pH 7.4, Donor pH 7.4, Acceptor pH 7.4, read-out: PAMPA Permeability, Pe, Donor pH 7.4), 820 ×10⁻⁶ cm/s. Moreover, the “Hepatic Microsome Stability (% Remaining at 1 hr) Human” value in data set [4] was 24.12 % Remaining. Also, in data set [4] (no NADPH), the “Hepatic Microsome Stability (% Remaining at 1 hr) Human (no NADPH)” value is recorded as 57.84 % Remaining. Further, the half-life in data set [5] is 2.95 h. Moreover, the clearance in data set [5] (IV 2 mg/kg) turned out to be 67 mL/min/kg. The bioavailability in data set [5] (oral gavage 10 mg/kg) amounted to 20%. In addition, the “Western blot: phosphorylation of S6, mTOR, P70S6K, TSC2 and 4E-BP1” value in data set [6] is listed as “dose dependent inhibitory effects”. For the same compound, the “effect on the eIF4F complex in vivo (m7GTP-beads)” value in data set [7] (A375 tumors, treatment with both BRAFi and Compound 38, up to 8 hours) is given as “time-dependent disruption of the eIF4F complex”. Besides, the “Growth of established tumors (~250 mm^3), combination of BRAFi plus Compound 38” value in data set [7] (PLX4720 chow plus Compound 38 1 mg/kg, 2 times per week intraperitoneally) was “largely inhibited”. Besides, the “Tumors seen in mice treated with the drug combination” value in data set [7] (treatment started at ~250 mm^3, PLX4720 chow plus Compound 38 1 mg/kg IP) was 0/4.
